Literature values, collected in patent US20210393580A1, “PROCYANIDINS FOR THE TREATMENT OF ENDOTHELIAL DYSFUNCTION TRIGGERED BY COVID-19” (priority 2020, published 2021).

Legend:
[1] = system: iNOS (inducible nitric oxide synthase)
[2] = system: SARS proteases, spike protein and nonstructural proteins (NSP-9, 15); details: Autodock vina; hydrogen bonds with active site residues, low binding energy
[3] = system: wild-type severe acute respiratory syndrome coronavirus (wtSARS-CoV); details: compounds fractionated from CC; for IC50: read-out: IC50, anti-wtSARS-CoV activity

For `O=C1CCC(Cc2ccc(O)c(O)c2)O1` (stereo not drawn) [M1, δ-(3,4-dihydroxy-phenyl)-γ-valerolactone], the excessive nitrite production [1] is given as “reducing” and the iNOS expression [1] is given as “reducing iNOS (inducible nitric oxide synthase) expression”.
For `CCc1oc(=O)c(Cc2c(O)c(CC=C(C)C)c(O)c(C(C)=O)c2O)c(O)c1C` [arzanol], the “interaction with the SARS viral proteins” value [2] is listed as “significant interaction”.
For `COc1cc(/C=C/C(=O)O)ccc1O` [ferulic acid], the “interaction with the SARS viral proteins” value [2] is listed as “significant interaction”.
In the case of `O=c1c(-c2ccc(O)cc2)coc2cc(O)cc(O)c12` [genistein], the “interaction with the SARS viral proteins” value [2] is given as “significant interaction”.
For `Oc1cc(O)c2c(c1)O[C@@]1(c3ccc(O)c(O)c3)Oc3cc(O)c4c(c3[C@@H]2[C@H]1O)O[C@H](c1ccc(O)c(O)c1)[C@H](O)C4` [procyanidin A2], the “SI, anti-wtSARS-CoV activity” value [3] is listed as 37.35 and the IC50 [3] is listed as 29.9 ± 3.3 µM.
For `Oc1cc(O)c2c(c1)O[C@H](c1ccc(O)c(O)c1)[C@H](O)[C@H]2c1c(O)cc(O)c2c1O[C@H](c1ccc(O)c(O)c1)[C@@H](O)C2` [procyanidin B1], the “SI, anti-wtSARS-CoV activity” value [3] is given as 15.69 and the IC50 [3] is given as 41.3 ± 3.4 µM.
In the case of `Oc1ccc(C=Cc2cc(O)cc(O)c2)cc1` [resveratrol], the “interaction with the SARS viral proteins” value [2] is given as “significant interaction”.
In the case of `CC(C)c1cc2c(c(O)c1O)[C@@]13CCCC(C)(C)[C@@H]1[C@H](OC3=O)[C@H]2O` [rosmanol], the “interaction with the SARS viral proteins” value [2] is listed as “significant interaction”.
For `Cc1cc(O)c(C(C)C)cc1O` [thymohydroquinone], the “interaction with the SARS viral proteins” value [2] is given as “significant interaction”.
